Earlier results, collected in US20260217749A1, “METAL COMPLEX COMPOUNDS AS PHOTOSENSITIZERS FOR PHOTODYNAMIC THERAPY” (UNIVERSITAT DE BARCELONA, priority 2023, published 2026).

Tested on: SK-MEL-28 melanoma cells
Details: red light irradiation (625 nm)

## Cc1ccnc(-c2cc(C)ccn2)c1.Cc1ccnc(-c2cc(C)ccn2)c1.[Cl-].[Cl-].[Ru+2].c1csc(-c2ccc(-c3ccc(-c4nc5c6cccnc6c6ncccc6c5[nH]4)s3)s2)c1 [TLD-1433]
  IC50: 2300 nM
  PI value: moderate
